# Data as given in patent US20230310408A1, “TLR7 INHIBITOR IN COMBINATION WITH PREDNISOLONE OR HYDROXYCHLOROQUINE FOR TREATING CUTANEOUS LUPUS ERYTHEMATOSUS” (priority 2020, published 2023).
# Entries after “also recorded” stand apart in the source; their conditions may differ.
# Legend:
# Type in all cases: in vivo, mouse
# Female MRL/lpr mice [1] = test: Cutaneous model of lupus: female MRL/lpr mice treated orally once daily for 8 weeks;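 on all read-outs here: mice aged 12–14 weeks, randomized by anti-dsDNA antibody titer and urinary NGAL, treated groups compared against vehicle controls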; conditions: for % Survival / anti-dsDNA, anti-Ro and anti-smRNP auto-antibody titers / kidney injury markers (proteinuria and urinary NGAL) / cutaneous lesions (number of lesions on face, neck, head, ear; total lesions) / erythema of cutaneous lesions (neck, ear, total): oral once daily; for % Survival / cutaneous lesions (number of lesions on face, neck, head, ear; total lesions) / erythema of cutaneous lesions (neck, ear, total): 8 weeks; for anti-dsDNA, anti-Ro and anti-smRNP auto-antibody titers: 8 weeks (FIG. 3); for anti-dsDNA, anti-Ro and anti-smRNP auto-antibody titers / kidney injury markers (proteinuria and urinary NGAL): at 0.25 and 0.75 mg/kg Compound (I); for kidney injury markers (proteinuria and urinary NGAL): 8 weeks (FIG. 4); for cutaneous lesions (number of lesions on face, neck, head, ear; total lesions): versus vehicle (FIG. 1); for erythema of cutaneous lesions (neck, ear, total): versus vehicle (FIG. 2)
# Female MRL/lpr mice [2] = test: Combination studies in MRL/lpr model of lupus, established disease; conditions: 5 weeks; for total number of cutaneous lesions: doses of Table 2 (FIG. 6); for neck erythema of cutaneous lesions: doses of Table 2 (FIG. 7); for ear erythema of cutaneous lesions: doses of Table 2 (FIG. 8); for total erythema of cutaneous lesions: doses of Table 2 (FIG. 9); for kidney injury marker proteinuria: doses of Table 2 (FIG. 10); for kidney injury marker urinary NGAL: doses of Table 2 (FIG. 11)
# Procedure: Female MRL/lpr mice of 15 weeks of age were treated for 5 weeks. […] Total skin lesions score includes cumulative score of Neck/Back, Face, Head and Ear lesions
# Female MRL/lpr mice [3] = test: Combination studies in MRL/lpr model of lupus, advanced disease; conditions: 5 weeks; for total number of cutaneous lesions: doses of Table 2 (FIG. 12); for neck erythema of cutaneous lesions: doses of Table 2 (FIG. 13, FIG. 14); for ear erythema of cutaneous lesions: doses of Table 2 (FIG. 15); for total erythema of cutaneous lesions: doses of Table 2 (FIG. 16)
# Procedure: Female MRL/lpr mice of 16 weeks of age were treated for 5 weeks. […] Total skin lesions score includes cumulative score of Neck/Back, Face, Head and Ear lesions.
compound,measurement,setting,value
"Cc1c(-c2[nH]c3ccc(C4CCN(CC(N)=O)CC4)cc3c2C(C)C)cn2ncnc2c1C [Compound (I), 2-(4-(2-(7,8-dimethyl-[1,2,4]triazolo[1,5-a]pyridin-6-yl)-3-isopropyl-1H-indol-5-yl)piperidin-1-yl)acetamide]",% Survival,Female MRL/lpr mice [1]; 0.005 mg/kg,87%
same,% Survival,Female MRL/lpr mice [1]; 0.02 mg/kg,93%
same,% Survival,Female MRL/lpr mice [1]; 0.25 mg/kg,100%
same,% Survival,Female MRL/lpr mice [1]; 0.75 mg/kg,100%
same,Type I IFN response gene expression,"Female MRL/lpr mice [1]; at 0.25 and 0.75 mg/kg, blood, qPCR",inhibited
same,"anti-dsDNA, anti-Ro and anti-smRNP auto-antibody titers",Female MRL/lpr mice [1],Inhibition; also recorded: significant suppression
same,kidney injury markers (proteinuria and urinary NGAL),Female MRL/lpr mice [1],reduction; also recorded: Inhibition; also recorded: suppression
same,"cutaneous lesions (number of lesions on face, neck, head, ear; total lesions)",Female MRL/lpr mice [1],significant and robust dose-dependent suppression; also recorded: Dose-dependent inhibition
same,"erythema of cutaneous lesions (neck, ear, total)",Female MRL/lpr mice [1],suppressed; also recorded: significant reduction; also recorded: Dose-dependent inhibition
same,% Survival,Female MRL/lpr mice [2]; 0.25 mg/kg,100%
same,total number of cutaneous lesions,Female MRL/lpr mice [2],suppressed
same,neck erythema of cutaneous lesions,Female MRL/lpr mice [2],suppressed
same,ear erythema of cutaneous lesions,Female MRL/lpr mice [2],suppressed
same,total erythema of cutaneous lesions,Female MRL/lpr mice [2],suppressed
same,kidney injury marker proteinuria,Female MRL/lpr mice [2],suppression
same,kidney injury marker urinary NGAL,Female MRL/lpr mice [2],suppression
same,% Survival,Female MRL/lpr mice [3]; 0.25 mg/kg,93.3%
same,total number of cutaneous lesions,Female MRL/lpr mice [3],suppressed
same,neck erythema of cutaneous lesions,Female MRL/lpr mice [3],suppressed; also recorded: increased suppression of erythema of cutaneous lesions on the neck of mice compared the treatment with hydroxychloroquine
same,ear erythema of cutaneous lesions,Female MRL/lpr mice [3],suppressed
same,total erythema of cutaneous lesions,Female MRL/lpr mice [3],suppressed
hydroxychloroquine [HCQ],% Survival,Female MRL/lpr mice [2]; 100 mg/kg,93.3%
same,total number of cutaneous lesions,Female MRL/lpr mice [2],suppression of cutaneous lesions but less than treatment with Compound (I)
same,neck erythema of cutaneous lesions,Female MRL/lpr mice [2],suppression
same,ear erythema of cutaneous lesions,Female MRL/lpr mice [2],suppression of erythema of cutaneous lesions on the ear of mice but less than treatment with Compound (I)
same,total erythema of cutaneous lesions,Female MRL/lpr mice [2],suppression
same,kidney injury marker proteinuria,Female MRL/lpr mice [2],suppression
same,kidney injury marker urinary NGAL,Female MRL/lpr mice [2],suppression
same,% Survival,Female MRL/lpr mice [3]; 100 mg/kg,100%
same,total number of cutaneous lesions,Female MRL/lpr mice [3],suppression of cutaneous lesions but less than treatment with Compound (I)
same,neck erythema of cutaneous lesions,Female MRL/lpr mice [3],suppression
same,ear erythema of cutaneous lesions,Female MRL/lpr mice [3],suppression of erythema of cutaneous lesions on the ear of mice but less than treatment with Compound (I)
same,total erythema of cutaneous lesions,Female MRL/lpr mice [3],suppression
"CC12C=CC(=O)C=C1CCC1C2C(O)CC2(C)C1CCC2(O)C(=O)CO (stereo not shown) [Prednisolone, 11,17-dihydroxy-17-(2-hydroxyacetyl)-10,13-dimethyl-6,7,8,9,10,11,12,13,14,15,16,17-dodecahydrocyclopenta[a] phenanthren-3-one]",% Survival,Female MRL/lpr mice [1]; 10 mg/kg,100%
same,"anti-dsDNA, anti-Ro and anti-smRNP auto-antibody titers",Female MRL/lpr mice [1],inhibition
same,kidney injury markers (proteinuria and urinary NGAL),Female MRL/lpr mice [1],reduction
same,"cutaneous lesions (number of lesions on face, neck, head, ear; total lesions)",Female MRL/lpr mice [1],inhibition
same,"erythema of cutaneous lesions (neck, ear, total)",Female MRL/lpr mice [1],reduction
same,% Survival,Female MRL/lpr mice [2]; 1 mg/kg,93.3%
same,% Survival,Female MRL/lpr mice [2]; 10 mg/kg,93.3%
same,total number of cutaneous lesions,Female MRL/lpr mice [2],suppression of cutaneous lesions but less than treatment with Compound (I)
same,neck erythema of cutaneous lesions,Female MRL/lpr mice [2],suppression
same,ear erythema of cutaneous lesions,Female MRL/lpr mice [2],suppression of erythema of cutaneous lesions on the ear of mice but less than treatment with Compound (I)
same,total erythema of cutaneous lesions,Female MRL/lpr mice [2],suppression
same,kidney injury marker proteinuria,Female MRL/lpr mice [2],suppression
same,kidney injury marker urinary NGAL,Female MRL/lpr mice [2],suppression
same,% Survival,Female MRL/lpr mice [3]; 1 mg/kg,86.6%
same,% Survival,Female MRL/lpr mice [3]; 10 mg/kg,93.3%
same,total number of cutaneous lesions,Female MRL/lpr mice [3],suppression of cutaneous lesions but less than treatment with Compound (I)
same,neck erythema of cutaneous lesions,Female MRL/lpr mice [3],suppression
same,ear erythema of cutaneous lesions,Female MRL/lpr mice [3],suppression of erythema of cutaneous lesions on the ear of mice but less than treatment with Compound (I)
same,total erythema of cutaneous lesions,Female MRL/lpr mice [3],suppression
